Test results as given in US20230312587A1, “PTERIDINONE COMPOUNDS AND USES THEREOF” (Vertex Pharmaceutical Incorporated, priority 2018, published 2023).
pIC50: −log10 of the molar value.

Tested on: β-catenin-TCF-mediated reporter transcription activity in Colo 205 cells
Experiment: Colo 205 reporter assay (TCF/LEF luciferase)
Type: cell-based
Conditions: Homo sapiens, COLO 205, 5 h, Colo 205 TCF/LEF luciferase reporter, five hours after addition of compound; read-out: TCF reporter Colo205 IC50
Description: The compounds of the invention described herein were screened using the assay procedure for β-catenin-TCF-mediated reporter transcription activity described below.
Reporter cell lines were generated by stably transfecting cells of cancer cell lines (e.g., colon cancer) with a plasmid reporter construct (From SABiosciences, a QIAGEN company) that includes TCF/LEF promoter driving expression of the firefly luciferase gene. TCF/LEF reporter constructs were made in which TCF/LEF promoter, a promoter with optimal number of TCF/LEF binding sites designed by SABiosceinces, was linked upstream of the firefly luciferase gene. This construct could also include a puromycin resistance gene as a selectable marker. This construct could also be used to stably transfect Colo 205 cells, a colon cancer cell line having a mutated APC gene that causes a constitutively active β-catenin. A control cell line was generated using another plasmid construct containing the luciferase gene under the control of a CMV basal promoter which is not activated by p-catenin.
Colo 205 Cultured cells with a stably transfected reporter construct were plated at approximately 10,000 cells per well into 384 well multi-well plates for twenty four hours. The testing compounds were then added to the wells in 2-fold serial dilutions using a twenty micromolar top concentration. A series of control wells for each cell type received only compound solvent. Five hours after the addition of compound, reporter activity for luciferase was assayed, by addition of the SteadyGlo luminescence reagent (Promega). The reporter luminescence activity was measured using Pherastar plate reader (BMG Labtech). Readings were normalized to DMSO only treated cells, and normalized activities were then used in the IC50 calculations. The Colo 205 reporter assay data are summarized in Table 45: A<0.3 μM; 0.3 μM≤B<1.0 μM; 1.0 μM≤C<5.0 μM; D≥5.0 μM
Colo 205 reporter assay data has also been obtained for certain R-isomers of Formula (I) wherein R^4 is —H or -D, and wherein the carbon to which R^3 and R^4 are attached (C2 carbon of Formula (X)) has R stereochemistry; such epimeric compounds are represented using the suffix “B” attached to the Compound described herein having the S stereochemistry at the carbon to which R^3 and R^4 are attached: […]

| Compound | pIC50 |
| --- | --- |
| CO[C@H](C)[C@H]1C(=O)N(C)c2cnc(NCc3cnn(Cc4cc(F)c(F)c(F)c4)c3)nc2N1C [Compound 21, (7S)-7-((R)-1-methoxyethyl)-5,8-dimethyl-2-(((1-(3,4,5-trifluorobenzyl)-1H-pyrazol-4-yl)methyl)amino)-7,8-dihydropteridin-6(5H)-one] | > 6.52 |
| Cc1nc(NC2CN(C(=O)c3ccc(C(F)(F)F)o3)C2)nc2c1NC(=O)[C@H](C(C)C)N2C [Compound 621, (S)-7-isopropyl-4,8-dimethyl-2-((1-(5-(trifluoromethyl)furan-2-carbonyl)azetidin-3-yl)amino)-7,8-dihydropteridin-6(5H)-one] | 6.00 to 6.52 |
| Cc1nc(N[C@H]2C[C@@H](COc3ccc(F)c(F)c3)C2)nc2c1NC(=O)[C@H](C)N2C [Compound 271, (7S)-2-((cis-3-((3,4-difluorophenoxy)methyl)cyclobutyl)amino)-4,7,8-trimethyl-7,8-dihydropteridin-6(5H)-one] | > 6.52 |
| Cc1nc(NCc2cnn(Cc3ccccc3C(F)(F)F)c2)nc2c1NC(=O)[C@H](C)N2C [Compound 68, (7S)-4,7,8-trimethyl-2-(((1-(2-(trifluoromethyl)benzyl)-1H-pyrazol-4-yl)methyl)amino)-7,8-dihydropteridin-6(5H)-one] | > 6.52 |
| Cc1nc(N[C@H]2C[C@H](Sc3ccc(C(F)(F)F)cc3)C2)nc2c1N(C)C(=O)[C@H](C)N2C [Compound 320, (7S)-4,5,7,8-tetramethyl-2-((trans-3-((4(trifluoromethyl)phenyl)thio)-cyclobutyl)-amino)-7,8-dihydropteridin-6(5H)-one] | 5.30 to 6.00 |
| Cc1nc(NCc2cnn([C@H](C)Cc3ccccc3)c2)nc2c1NC(=O)[C@H](C)N2C [Compound 101, (7S)-4,7,8-trimethyl-2-(((1-((R)—1-phenylpropan-2-yl)-1H-pyrazol-4-yl)methyl)amino)-7,8-dihydropteridin-6(5H)-one] | > 6.52 |
| C[C@H]1C(=O)Nc2cnc(N[C@H]3C[C@H](OCc4cc(F)c(F)c(F)c4)C3)nc2N1C [Compound 256, (7S)-7,8-dimethyl-2-((trans-3-((3,4,5-trifluorobenzyl)oxy)cyclobutyl)amino)-7,8-dihydropteridin-6(5H)-one] | 6.00 to 6.52 |
| Cc1nc(N[C@H]2C[C@@H](COc3ccc(OC(F)(F)F)nc3)C2)nc2c1NC(=O)[C@H](C(C)C)N2C [Compound 598, (S)-7-isopropyl-4,8-dimethyl-2-((cis-3-(((6-(trifluoromethoxy)pyridin-3-yl)oxy)methyl)cyclobutyl)amino)-7,8-dihydropteridin-6(5H)-one] | > 6.52 |
| C[C@H]1C(=O)Nc2cnc(NCc3cnn(Cc4ccc(F)c(F)c4)c3)nc2N1C [Compound 141, (7S)-2-(((1-(3,4-difluorobenzyl)-1H-pyrazol-4-yl)methyl)amino)-7,8-dimethyl-7,8-dihydropteridin-6(5H)-one] | > 6.52 |
| CO[C@H](C)[C@H]1C(=O)Nc2c(C)nc(N[C@H]3C[C@@H](Nc4cnc(C(F)(F)F)cn4)C3)nc2N1C [Compound 647, (S)-7-((R)-1-methoxyethyl)-4,8-dimethyl-2-((cis-3-((5-(trifluoromethyl)pyrazin-2-yl)amino)cyclobutyl)amino)-7,8-dihydropteridin-6(5H)-one] | > 6.52 |
| COc1ccc(O[C@H]2C[C@H](Nc3nc(C)c4c(n3)N(C)[C@@H](C)C(=O)N4C)C2)cc1OC [Compound 353, (7S)-2-((trans-3-(3,4-dimethoxyphenoxy)cyclobutyl)amino)-4,5,7,8-tetramethyl-7,8-dihydropteridin-6(5H)-one] | ≤ 5.30 |
| Cc1nc(NCc2cnn(Cc3ccc(F)cc3F)c2)nc2c1N(C)C(=O)[C@H](C)N2C [Compound 29, (7S)-2-(((1-(2,4-difluorobenzyl)-1H-pyrazol-4-yl)methyl)amino)-4,5,7,8-tetramethyl-7,8-dihydropteridin-6(5H)-one] | > 6.52 |
| Cc1ncc(Cn2cc(CNc3ncc4c(n3)N(C)[C@@H](C)C(=O)N4)cn2)cn1 [Compound 166, (7S)-7,8-dimethyl-2-(((1-((2-methylpyrimidin-5-yl)methyl)-1H-pyrazol-4-yl)methyl)amino)-7,8-dihydropteridin-6(5H)-one] | ≤ 5.30 |
| CC[C@H]1C(=O)Nc2c(C)nc(N[C@H]3C[C@@H](COc4ccc(C(F)(F)F)nc4)C3)nc2N1C [Compound 646, (S)-7-ethyl-4,8-dimethyl-2-((cis-3-(((6-(trifluoromethyl)pyridin-3-yl)oxy)methyl)cyclobutyl)amino)-7,8-dihydropteridin-6(5H)-one] | > 6.52 |
| Cc1nc(NC2CN(C(=O)C34CC(C(F)(F)F)(C3)C4)C2)nc2c1NC(=O)[C@H](C(C)C)N2C [Compound 699, (S)-7-isopropyl-4,8-dimethyl-2-((1-(3-(trifluoromethyl)bicyclo[1.1.1]pentane-1-carbonyl)azetidin-3-yl)amino)-7,8-dihydropteridin-6(5H)-one] | 5.30 to 6.00 |
| Cc1nc(N[C@H]2CCN(Cc3ccccc3)C2)nc2c1NC(=O)[C@H](C)N2C [Compound 371, (7S)-2-(((S)-1-benzylpyrrolidin-3-yl)amino)-4,7,8-trimethyl-7,8-dihydropteridin-6(5H)-one] | ≤ 5.30 |
| Cc1nc(N[C@H]2C[C@@H](COc3ccc(C#N)nc3)C2)nc2c1NC(=O)[C@H](C(C)C)N2C [Compound 572, 5-((cis-3-(((S)-7-isopropyl-4,8-dimethyl-6-oxo-5,6,7,8-tetrahydropteridin-2-yl)amino)cyclobutyl)methoxy)picolinonitrile] | > 6.52 |
| Cc1nc(NCc2cnn(CC(=O)c3ccc(F)cc3)c2)nc2c1NC(=O)[C@H](C)N2C [Compound 91, (7S)-2-(((1-(2-(4-fluorophenyl)-2-oxoethyl)-1H-pyrazol-4-yl)methyl)amino)-4,7,8-trimethyl-7,8-dihydropteridin-6(5H)-one] | > 6.52 |
| Cc1nc(NC2CN(C(=O)Cc3ccc(F)c(F)c3)C2)nc2c1NC(=O)[C@H](C(C)C)N2C [Compound 626, (S)-2-((1-(2-(3,4-difluorophenyl)acetyl)azetidin-3-yl)amino)-7-isopropyl-4,8-dimethyl-7,8-dihydropteridin-6(5H)-one] | > 6.52 |
| Cc1nc(NCc2cnn(Cc3ccc(OCC(F)(F)F)nc3)c2)nc2c1NC(=O)[C@H](C1CC1)N2C [Compound 435, (7S)-7-cyclopropyl-4,8-dimethyl-2-(((1-((6-(2,2,2-trifluoroethoxy)pyridin-3-yl)methyl)-1H-pyrazol-4-yl)methyl)amino)-7,8-dihydropteridin-6(5H)-one] | > 6.52 |
| Cc1nc(NCc2cnn(CCc3ccc(F)c(F)c3)c2)nc2c1NC(=O)[C@H](C)N2C [Compound 105, (7S)-2-(((1-(3,4-difluorophenethyl)-1H-pyrazol-4-yl)methyl)amino)-4,7,8-trimethyl-7,8-dihydropteridin-6(5H)-one] | > 6.52 |
| COc1cc(F)ccc1O[C@H]1C[C@H](Nc2nc(C)c3c(n2)N(C)[C@@H](C)C(=O)N3C)C1 [Compound 345, (7S)-2-((trans-3-(4-fluoro-2-methoxyphenoxy)cyclobutyl)amino)-4,5,7,8-tetramethyl-7,8-dihydropteridin-6(5H)-one] | 6.00 to 6.52 |
| Cc1nc(NCc2cnn(Cc3ccc(Cl)nc3)c2)nc2c1NC(=O)[C@H](CC(C)C)N2C [Compound 550, (S)-2-(((1-((6-chloropyridin-3-yl)methyl)-1H-pyrazol-4-yl)methyl)amino)-7-isobutyl-4,8-dimethyl-7,8-dihydropteridin-6(5H)-one] | > 6.52 |
